Data from patent US20190183939A1, “CELL THERAPY USING MIDBRAIN-TYPE NEURAL STEM CELLS TREATED WITH VITAMIN C” (INDUSTRY-UNIVERSITY COOPERATION FOUNDATION HANYANG …, priority 2017, published 2019).

Legend:
Format in all cases: cell-based, rat
[1] = system: TH+ DA neurons differentiated from VM-NSCs; assay: Morphologic and functional maturation of DA neurons; settings: VC during expansion
Protocol: To estimate morphological maturation, total fiber lengths emanating from TH+DA neuronal cells were measured. The pre-synaptic activity of DA neurons was determined by measuring the levels of DA neurotransmitter released in the differentiated VM-NSC cultures. Media incubated for 2 days (differentiation day 13-15) were collected and used in the DA level determinations using an ELISA kit (BA E-5300, LDN). In addition, DA release evoked by membrane depolarization was estimated by incubating the cultures (at differentiation day 15) in fresh N2 media in the presence or absence of 56 mM KCl for 30 min. The evoked DA release was calculated by subtracting the DA release without KCl from the DA level with KCl.

VM-NSC cultures = assay: Marker expression by immunocytochemistry and real-time PCR
Protocol: (§1) Cultured cells and cryosectioned brain slices were fixed with 4% paraformaldehyde (PFA), and blocked for 40 minutes in blocking solution (Blocking solution: 1% BSA+0.3% Triton X-100). For 5hmC and 5mC staining, the fixed cells were incubated with 2 N HCl for 20 minutes before the blocking reaction. The samples were incubated overnight at 4° C. in the blocking solution containing the primary antibodies listed in Supplemental Table 1. Secondary antibodies tagged with Alexa 488 (1:200, Invitrogen, Carlsbad, Calif.) and Cy3 (1:200, Jackson Immunoresearch Laboratories, West Grove, Pa.) were applied. Stained samples were mounted in Vectashield medium containing 40,6-diamidino-2-phenylindole (DAPI; Vector Laboratories, West Grove, Pa.) and analysed under an epifluorescence (Leica, Wetzlar, Germany) or confocal microscope (Leica TSP SP5).
Immunostained cells were counted in 10-20 random areas of each culture coverslip using an eyepiece grid at a magnification of 200×. Data are expressed as the mean±SEM of three to eight independent cultures. For every figure, statistical tests are justified as appropriate. Statistical comparisons were made using Student's t-test (unpaired) or one-way ANOVA followed by Tukey's post hoc analysis using SPSS® Statistics 21; IBM Inc. The relevant n, P-values, and statistical analysis methods are indicated in each figure legend.

[2] = system: global 5hmC/5mC and H3K27m3/H3K9m3 levels in VM-NSCs; assay: Global epigenetic code determination (dot blot, western blot, immunocytochemistry)
Protocol: as §1
DNA dot blot analysis for 5hmC/5mC was performed as described in the following reference. [He, X. B., Kim, M., Kim, S. Y., Yi, S. H., Rhee, Y. H., Kim, T., Lee, E. H., Park, C. H., Dixit, S., Harrison, F. E., et al. (2015). Vitamin C facilitates dopamine neuron differentiation in fetal midbrain through TET1- and JMJD3-dependent epigenetic control manner. Stem Cells 33, 1320-1332]. Briefly, genomic DNA was extracted and quantified. Genomic DNA (80 ng) was spotted on nitrocellulose membranes, air dried, and exposed in UV for 20 minutes. After blocking with 5% bovine serum albumin (BSA)/Tris-buffered saline-Tween 20 at room temperature for 2 hours, the membrane was incubated in anti-5hmC (Active Motif, Carlsbad, Calif.) and anti-5mC (Abcam, Cambridge, UK) antibodies at 4° C. overnight. Western-blots for determining global histone modification changes were performed as described in the following reference. [Rumbaugh, G., and Miller, C. A. (2011). Epigenetic changes in the brain: measuring global histone modifications. Methods Mol Biol 670, 263-274]. […] Positive bands were detected and captured by ChemiDoc (Bio-Rad, Hercules, Calif.), and the intensities of the bands were quantified using ImageJ software (http://imagej.nih.gov/ij).

[3] = system: Foxa2 and Lmx1a promoters; assay: DIP-qPCR and ChIP-qPCR on Foxa2 and Lmx1a promoters
Description: (§2) Foxa2 and Nurr1 binding sites were identified using the Jaspar database (http://jaspar.genereg.net/) using an 80% score threshold. Predicted Foxa2 and Nurr1 binding sites were coupled with phylogenetic footprinting to eliminate spurious predictions with specified position weight matrix (PWM) settings, as described in the following reference. [Sandelin, A., and Wasserman, W. W. (2004). Constrained binding site diversity within families of transcription factors enhances pattern discovery bioinformatics. Journal of molecular biology 338, 207-215] (Table 2). ChIP and DIP assays were carried out as described in the following reference. [Prolonged membrane depolarization enhances midbrain dopamine neuron differentiation via epigenetic histone modifications. Stem Cells 29, 1861-1873]. Briefly, chromatin or genomic DNA was sheared to an average of 200-500 bp in length using a sonication Bioruptor (BMS, Seoul, Korea) and immunoprecipitated using the antibodies listed in Table 1. Immunoprecipitated DNA fragments were collected using magnetic beads (Invitrogen), purified, and subjected to real-time PCR using the primers listed in Table 3. The comparative cycle threshold method was used to quantify the results. Data were normalized to the input DNA.

Nurr1 and TH promoters = assay: DIP-qPCR and ChIP-qPCR on Nurr1 and TH promoters
Description: as §2

[4] = system: GAD67, TPH2 and GFAP promoters; assay: DIP-qPCR and ChIP-qPCR on GAD67, TPH2 and GFAP promoters; settings: VC administration to proliferating VM-NSCs
Description: as §2

O=C1O[C@H]([C@@H](O)CO)C(O)=C1O [VC, L-ascorbic acid]
total fiber lengths per TH+ DA neuron ([1]; D15): 164 um
presynaptic DA neuronal function measured by DA release ([1]; medium 48 hr (D13-15) and KCl evoked 30 min): greater
synapsin+ puncta in TH+ DA neuron neurites ([1]; vs untreated control): more abundantly localized
percentage of cells expressing Foxa2 and Lmx1a (VM-NSC cultures; D0, VC during expansion): enhanced
percentage of Nurr1+ cells (VM-NSC cultures; D2, VC during proliferating NSC stage): greater
mRNA expression of GFAP and GFAP+ astrocyte yields (VM-NSC cultures; VC during proliferating VM-NSC stage): significantly enhanced
mRNA expression levels of TPH2 and GAD67 (VM-NSC cultures; VC during proliferation): no significant alteration
expression of Nestin, Sox2 and Otx2 markers (VM-NSC cultures; proliferating VM-NSC cultures): not altered
mRNA levels of Foxa2 and Lmx1a (VM-NSC cultures; real-time PCR, D0): enhanced
global 5mC levels ([2]; D0): significant decrease
global levels of H3K27m3 and H3K9m3 ([2]; D0): reduced
global 5hmC levels ([2]; D0, immunoblotting and immunocytochemical analyses): greatly increased
binding of Tet1, Jmjd3 and Jmjd2 proteins to Foxa2 and Lmx1a promoter regions ([3]; ChIP-qPCR, D0): increased binding
5mC levels in Foxa2 promoter regions ([3]; MeDIP-qPCR, VC-treated NSCs): reduced
5hmC in Foxa2 promoter regions ([3]; hMeDIP-qPCR, VC-treated NSCs): more abundant
Nurr1 protein abundance at TH promoter (Nurr1 and TH promoters; ChIP-qPCR, D6): significantly greater
Foxa2 recruitment to Nurr1 promoter regions (Nurr1 and TH promoters; D2, culture pre-treated with VC): more abundantly recruited
5hmC/5mC and H3K27m3/H3K9m3 at Nurr1 promoter regions (Nurr1 and TH promoters; from D0, compared to untreated controls): increased 5hmC levels with 5mC decreases and the decrease of H3K27m3/H3K9m3
epigenetic codes on TPH2 and GAD67 genes [4]: did not affect
